This experiment has as its target T1, Proteasome subunit beta type-5 (Homo sapiens, UniProt P28074).
T1 sequence (P28074 whole entry): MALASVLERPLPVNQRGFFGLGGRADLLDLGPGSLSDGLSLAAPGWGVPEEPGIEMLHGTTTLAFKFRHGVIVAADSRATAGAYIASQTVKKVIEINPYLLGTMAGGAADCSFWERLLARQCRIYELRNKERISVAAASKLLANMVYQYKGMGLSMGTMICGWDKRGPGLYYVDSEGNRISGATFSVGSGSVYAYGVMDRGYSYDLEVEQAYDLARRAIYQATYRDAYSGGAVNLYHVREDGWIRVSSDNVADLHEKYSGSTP
The experiment is described as follows: 20S proteasome chymotrypsin-like inhibition assay.

The IC50 is the concentration that gives 50% inhibition. Low readings indicate greater potency in that assay, high ones weaker potency in that assay. Compound `CC(C)C[C@H](NC(=O)CC(NC(=O)c1ccc(F)cc1)c1ccccc1)C(=O)N[C@@H](CC(C)C)C(=O)[C@@]1(C)CO1` (some centres undefined) [4-Fluoro-N-{3-{S-4-methyl-1-[S-4-methyl-1-(R-2-methyloxiran-2-yl)-1-oxopentan-2-ylamino]-1-oxopentan-2-ylamino}-3-oxo-1-phenylpropyl} benzamide (21d)] displayed an IC50 of 970 nM. As to `CC(C)C[C@H](NC(=O)CC(NC(=O)c1cccnc1)c1ccccc1)C(=O)N[C@@H](CC(C)C)C(=O)[C@@]1(C)CO1` (some centres undefined) [N-{3-{S-4-Methyl-1-[S-4-methyl-1-(R-2-methyloxiran-2-yl)-1-oxopentan-2-ylamino]-1-oxopentan-2-ylamino}-3-oxo-1-phenylpropyl} nicotinamide (21b)], 1850 nM corresponded to half-maximal inhibition (IC50). Then `CC(C)C[C@H](NC(=O)CC(NC(=O)c1ccccc1)c1ccccc1)C(=O)N[C@@H](CC(C)C)C(=O)[C@@]1(C)CO1` (some centres undefined) [N-{3-{S-4-Methyl-1-[S-4-methyl-1-(R-2-methyloxiran-2-yl)-1-oxopentan-2-ylamino]-1-oxopentan-2-ylamino}-3-oxo-1-phenylpropyl} benzamide (21c)], with 1420 nM; and `COc1ccc(C(=O)NC(CC(=O)N[C@@H](CC(C)C)C(=O)N[C@@H](CC(C)C)C(=O)[C@@]2(C)CO2)c2ccccc2)cc1` (some centres undefined) [4-Methoxy-N-{3-{S-4-methyl-1-[S-4-methyl-1-(R-2-methyloxiran-2-yl)-1-oxopentan-2-ylamino]-1-oxopentan-2-ylamino}-3-oxo-1-phenylpropyl} benzamide (21e)], with 1010 nM.

The values are drawn from BindingDB's records for doi:10.1111/cbdd.12342 (Zhejiang University, 2014).
